Test results taken from ChEMBL document CHEMBL3046842, “Antimicrobial and insect antifeedant activities of some Trogers bases” (2012).
The source made the active and inactive calls.

Key:
Aspergillus niger = assay: Antifungal activity against Aspergillus niger at 50 ug/ml after 72 hrs by disc diffusion method; type: functional, organism-based
Penicillium = assay: Antifungal activity against Penicillium at 50 ug/ml after 72 hrs by disc diffusion method; type: functional, organism-based
Candida albicans = assay: Antifungal activity against Candida albicans at 250 ug/ml after 72 hrs by disc diffusion method; type: functional; conditions: for zone of inhibition at 250 µg/mL: read-out: IZ
Enterococcus faecalis = assay: Antibacterial activity against Enterococcus faecalis at 250 ug/ml after 24 to 45 hrs by disc diffusion method; type: functional; conditions: for zone of inhibition at 250 µg/mL: read-out: IZ
Proteus vulgaris = assay: Antibacterial activity against Proteus vulgaris at 250 ug/ml after 24 to 45 hrs by disc diffusion method; type: functional; conditions: for zone of inhibition at 250 µg/mL: read-out: IZ
Klebsiella pneumoniae = assay: Antibacterial activity against Klebsiella pneumoniae at 250 ug/ml after 24 to 45 hrs by disc diffusion method; type: functional; conditions: read-out: IZ
Pseudomonas = assay: Antibacterial activity against Pseudomonas at 250 ug/ml after 24 to 45 hrs by disc diffusion method; type: functional; conditions: read-out: IZ
Staphylococcus aureus = assay: Antibacterial activity against Staphylococcus aureus at 250 ug/ml after 24 to 45 hrs by disc diffusion method; type: functional; conditions: read-out: IZ
Escherichia coli = assay: Antibacterial activity against Escherichia coli at 250 ug/ml after 24 to 45 hrs by disc diffusion method; type: functional; conditions: read-out: IZ

CCCOC(=O)c1ccc2c(c1)CN1CN2Cc2cc(C(=O)OCCC)ccc21
Activity (Aspergillus niger): Active
Activity (Penicillium): Active
zone of inhibition at 250 µg/mL (Candida albicans): 13 mm
zone of inhibition at 250 µg/mL (Enterococcus faecalis): 20 mm
zone of inhibition at 250 µg/mL (Proteus vulgaris): 13 mm
zone of inhibition at 250 µg/mL (Klebsiella pneumoniae): 20 mm
zone of inhibition at 250 µg/mL (Pseudomonas): 20 mm
zone of inhibition at 250 µg/mL (Staphylococcus aureus): 20 mm
zone of inhibition at 250 µg/mL (Escherichia coli): 13 mm

CCOc1ccc2c(c1)CN1CN2Cc2cc(OCC)ccc21
Activity (Aspergillus niger): Active
Activity (Penicillium): Active
zone of inhibition at 250 µg/mL (Candida albicans): 8 mm
Activity (Enterococcus faecalis): inactive
zone of inhibition at 250 µg/mL (Proteus vulgaris): 13 mm
zone of inhibition at 250 µg/mL (Klebsiella pneumoniae): 13 mm
zone of inhibition at 250 µg/mL (Pseudomonas): 20 mm
zone of inhibition at 250 µg/mL (Staphylococcus aureus): 20 mm
zone of inhibition at 250 µg/mL (Escherichia coli): 20 mm

Cc1ccc2c(c1)CN1CN2Cc2cc(C)ccc21
Activity (Aspergillus niger): inactive
Activity (Penicillium): inactive
zone of inhibition at 250 µg/mL (Candida albicans): 13 mm
Activity (Enterococcus faecalis): inactive
zone of inhibition at 250 µg/mL (Proteus vulgaris): 8 mm
zone of inhibition at 250 µg/mL (Klebsiella pneumoniae): 8 mm
zone of inhibition at 250 µg/mL (Pseudomonas): 8 mm
zone of inhibition at 250 µg/mL (Staphylococcus aureus): 13 mm
zone of inhibition at 250 µg/mL (Escherichia coli): 8 mm

Cc1cc2c(cc1Br)N1Cc3cc(C)c(Br)cc3N(C2)C1
Activity (Aspergillus niger): inactive
Activity (Penicillium): inactive
zone of inhibition at 250 µg/mL (Candida albicans): 13 mm
zone of inhibition at 250 µg/mL (Enterococcus faecalis): 13 mm
zone of inhibition at 250 µg/mL (Proteus vulgaris): 8 mm
zone of inhibition at 250 µg/mL (Klebsiella pneumoniae): 8 mm
zone of inhibition at 250 µg/mL (Pseudomonas): 8 mm
zone of inhibition at 250 µg/mL (Staphylococcus aureus): 13 mm
zone of inhibition at 250 µg/mL (Escherichia coli): 8 mm

Cc1cccc2c1N1Cc3cccc(C)c3N(C2)C1
Activity (Aspergillus niger): inactive
Activity (Penicillium): inactive
zone of inhibition at 250 µg/mL (Candida albicans): 13 mm
zone of inhibition at 250 µg/mL (Enterococcus faecalis): 13 mm
zone of inhibition at 250 µg/mL (Proteus vulgaris): 8 mm
zone of inhibition at 250 µg/mL (Klebsiella pneumoniae): 13 mm
zone of inhibition at 250 µg/mL (Pseudomonas): 13 mm
zone of inhibition at 250 µg/mL (Staphylococcus aureus): 8 mm
zone of inhibition at 250 µg/mL (Escherichia coli): 8 mm

N#Cc1ccc2c(c1)CN1CN2Cc2cc(C#N)ccc21
Activity (Aspergillus niger): inactive
Activity (Penicillium): inactive
zone of inhibition at 250 µg/mL (Candida albicans): 13 mm
Activity (Enterococcus faecalis): inactive
zone of inhibition at 250 µg/mL (Proteus vulgaris): 13 mm
zone of inhibition at 250 µg/mL (Klebsiella pneumoniae): 13 mm
zone of inhibition at 250 µg/mL (Pseudomonas): 13 mm
zone of inhibition at 250 µg/mL (Staphylococcus aureus): 13 mm
zone of inhibition at 250 µg/mL (Escherichia coli): 13 mm

COc1ccc2c(c1)CN1CN2Cc2cc(OC)ccc21
Activity (Aspergillus niger): inactive
Activity (Penicillium): Active
zone of inhibition at 250 µg/mL (Candida albicans): 20 mm
zone of inhibition at 250 µg/mL (Enterococcus faecalis): 20 mm
zone of inhibition at 250 µg/mL (Proteus vulgaris): 13 mm
zone of inhibition at 250 µg/mL (Klebsiella pneumoniae): 13 mm
zone of inhibition at 250 µg/mL (Pseudomonas): 20 mm
zone of inhibition at 250 µg/mL (Staphylococcus aureus): 20 mm
zone of inhibition at 250 µg/mL (Escherichia coli): 20 mm

Cc1cc(N)c2c(c1)CN1CN2Cc2cc(C)cc(N)c21
Activity (Aspergillus niger): inactive
Activity (Penicillium): Active
zone of inhibition at 250 µg/mL (Candida albicans): 13 mm
Activity (Enterococcus faecalis): inactive
zone of inhibition at 250 µg/mL (Proteus vulgaris): 13 mm
zone of inhibition at 250 µg/mL (Klebsiella pneumoniae): 13 mm
zone of inhibition at 250 µg/mL (Pseudomonas): 13 mm
zone of inhibition at 250 µg/mL (Staphylococcus aureus): 13 mm
zone of inhibition at 250 µg/mL (Escherichia coli): 13 mm

Nc1ccc2c(c1)CN1CN2Cc2cc(N)ccc21
Activity (Aspergillus niger): inactive
Activity (Penicillium): inactive
zone of inhibition at 250 µg/mL (Candida albicans): 13 mm
Activity (Enterococcus faecalis): inactive
zone of inhibition at 250 µg/mL (Proteus vulgaris): 13 mm
zone of inhibition at 250 µg/mL (Klebsiella pneumoniae): 13 mm
zone of inhibition at 250 µg/mL (Pseudomonas): 13 mm
zone of inhibition at 250 µg/mL (Staphylococcus aureus): 13 mm
zone of inhibition at 250 µg/mL (Escherichia coli): 13 mm

O=[N+]([O-])c1ccc2c(c1)CN1CN2Cc2cc([N+](=O)[O-])ccc21
Activity (Aspergillus niger): inactive
Activity (Penicillium): inactive
Activity (Candida albicans): inactive
zone of inhibition at 250 µg/mL (Enterococcus faecalis): 20 mm
zone of inhibition at 250 µg/mL (Proteus vulgaris): 13 mm
zone of inhibition at 250 µg/mL (Klebsiella pneumoniae): 13 mm
zone of inhibition at 250 µg/mL (Pseudomonas): 13 mm
zone of inhibition at 250 µg/mL (Staphylococcus aureus): 13 mm
zone of inhibition at 250 µg/mL (Escherichia coli): 20 mm

Cc1cc(C)c2c(c1)CN1CN2Cc2cc(C)cc(C)c21
Activity (Aspergillus niger): inactive
Activity (Penicillium): inactive
zone of inhibition at 250 µg/mL (Candida albicans): 13 mm
zone of inhibition at 250 µg/mL (Enterococcus faecalis): 8 mm
zone of inhibition at 250 µg/mL (Proteus vulgaris): 13 mm
zone of inhibition at 250 µg/mL (Klebsiella pneumoniae): 13 mm
zone of inhibition at 250 µg/mL (Pseudomonas): 8 mm
zone of inhibition at 250 µg/mL (Staphylococcus aureus): 13 mm
zone of inhibition at 250 µg/mL (Escherichia coli): 13 mm

CC(=O)c1cccc2c1N1Cc3cccc(C(C)=O)c3N(C2)C1
Activity (Aspergillus niger): Active
Activity (Penicillium): inactive
zone of inhibition at 250 µg/mL (Candida albicans): 20 mm
Activity (Enterococcus faecalis): inactive
zone of inhibition at 250 µg/mL (Proteus vulgaris): 8 mm
zone of inhibition at 250 µg/mL (Klebsiella pneumoniae): 8 mm
zone of inhibition at 250 µg/mL (Pseudomonas): 8 mm
zone of inhibition at 250 µg/mL (Staphylococcus aureus): 13 mm
zone of inhibition at 250 µg/mL (Escherichia coli): 8 mm

Cc1ccc2c(c1C)N1Cc3ccc(C)c(C)c3N(C2)C1
Activity (Aspergillus niger): inactive
Activity (Penicillium): Active
zone of inhibition at 250 µg/mL (Candida albicans): 8 mm
zone of inhibition at 250 µg/mL (Enterococcus faecalis): 8 mm
Activity (Proteus vulgaris): inactive
zone of inhibition at 250 µg/mL (Klebsiella pneumoniae): 13 mm
zone of inhibition at 250 µg/mL (Pseudomonas): 8 mm
zone of inhibition at 250 µg/mL (Staphylococcus aureus): 8 mm
zone of inhibition at 250 µg/mL (Escherichia coli): 13 mm

Cc1ccc2c(c1O)CN1CN2Cc2c1ccc(C)c2O
Activity (Aspergillus niger): inactive
Activity (Penicillium): inactive
zone of inhibition at 250 µg/mL (Candida albicans): 13 mm
zone of inhibition at 250 µg/mL (Enterococcus faecalis): 13 mm
zone of inhibition at 250 µg/mL (Proteus vulgaris): 8 mm
zone of inhibition at 250 µg/mL (Klebsiella pneumoniae): 8 mm
zone of inhibition at 250 µg/mL (Pseudomonas): 8 mm
zone of inhibition at 250 µg/mL (Staphylococcus aureus): 13 mm
zone of inhibition at 250 µg/mL (Escherichia coli): 8 mm

CCOC(=O)c1ccc2c(c1)CN1CN2Cc2cc(C(=O)OCC)ccc21
Activity (Aspergillus niger): inactive
Activity (Penicillium): inactive
Activity (Candida albicans): inactive
zone of inhibition at 250 µg/mL (Enterococcus faecalis): 20 mm
zone of inhibition at 250 µg/mL (Proteus vulgaris): 13 mm
zone of inhibition at 250 µg/mL (Klebsiella pneumoniae): 13 mm
zone of inhibition at 250 µg/mL (Pseudomonas): 20 mm
zone of inhibition at 250 µg/mL (Staphylococcus aureus): 20 mm
zone of inhibition at 250 µg/mL (Escherichia coli): 20 mm

Cc1cc(C#N)c2c(c1)CN1CN2Cc2cc(C)cc(C#N)c21
Activity (Aspergillus niger): inactive
Activity (Penicillium): inactive
zone of inhibition at 250 µg/mL (Candida albicans): 13 mm
Activity (Enterococcus faecalis): inactive
zone of inhibition at 250 µg/mL (Proteus vulgaris): 8 mm
zone of inhibition at 250 µg/mL (Klebsiella pneumoniae): 8 mm
zone of inhibition at 250 µg/mL (Pseudomonas): 8 mm
zone of inhibition at 250 µg/mL (Staphylococcus aureus): 8 mm
zone of inhibition at 250 µg/mL (Escherichia coli): 13 mm

COc1cc(C)c2c(c1)CN1CN2Cc2cc(OC)cc(C)c21
Activity (Aspergillus niger): inactive
Activity (Penicillium): Active
zone of inhibition at 250 µg/mL (Candida albicans): 20 mm
zone of inhibition at 250 µg/mL (Enterococcus faecalis): 13 mm
zone of inhibition at 250 µg/mL (Proteus vulgaris): 8 mm
zone of inhibition at 250 µg/mL (Klebsiella pneumoniae): 20 mm
zone of inhibition at 250 µg/mL (Pseudomonas): 20 mm
zone of inhibition at 250 µg/mL (Staphylococcus aureus): 20 mm
zone of inhibition at 250 µg/mL (Escherichia coli): 20 mm

Cc1cc(Br)c2c(c1)CN1CN2Cc2cc(C)cc(Br)c21
Activity (Aspergillus niger): inactive
Activity (Penicillium): inactive
zone of inhibition at 250 µg/mL (Candida albicans): 8 mm
Activity (Enterococcus faecalis): inactive
zone of inhibition at 250 µg/mL (Proteus vulgaris): 13 mm
zone of inhibition at 250 µg/mL (Klebsiella pneumoniae): 13 mm
zone of inhibition at 250 µg/mL (Pseudomonas): 13 mm
zone of inhibition at 250 µg/mL (Staphylococcus aureus): 13 mm
zone of inhibition at 250 µg/mL (Escherichia coli): 13 mm

Cc1cc([N+](=O)[O-])cc2c1N1Cc3cc([N+](=O)[O-])cc(C)c3N(C2)C1
Activity (Aspergillus niger): inactive
Activity (Penicillium): inactive
zone of inhibition at 250 µg/mL (Candida albicans): 13 mm
zone of inhibition at 250 µg/mL (Enterococcus faecalis): 8 mm
zone of inhibition at 250 µg/mL (Proteus vulgaris): 13 mm
zone of inhibition at 250 µg/mL (Klebsiella pneumoniae): 13 mm
zone of inhibition at 250 µg/mL (Pseudomonas): 13 mm
zone of inhibition at 250 µg/mL (Staphylococcus aureus): 13 mm
zone of inhibition at 250 µg/mL (Escherichia coli): 13 mm
